Data taken from PubChem BioAssay (NCI).
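Five concentrations, 48 hours, 96-well plates. GI50 = concentration required for 50% inhibition of growth. TGI: concentration producing complete growth inhibition.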

Columns and labels:
Experiment in all cases: DTP human tumour cell line panel, 48 h
BT-549 breast = tested on: BT-549 breast
OVCAR-3 ovarian = tested on: OVCAR-3 ovarian
MOLT-4 leukemia = tested on: MOLT-4 leukemia
LOX IMVI melanoma = tested on: LOX IMVI melanoma
HCT-116 colon = tested on: HCT-116 colon
ACHN renal = tested on: ACHN renal
PC-3 prostate = tested on: PC-3 prostate
SNB-19 CNS = tested on: SNB-19 CNS
SK-OV-3 ovarian = tested on: SK-OV-3 ovarian
EKVX NSCLC = tested on: EKVX NSCLC
SK-MEL-28 melanoma = tested on: SK-MEL-28 melanoma
MDA-MB-435 = tested on: MDA-MB-435
UACC-257 melanoma = tested on: UACC-257 melanoma
SR leukemia = tested on: SR leukemia
KM12 colon = tested on: KM12 colon
COLO 205 colon = tested on: COLO 205 colon
SF-539 CNS = tested on: SF-539 CNS
HOP-92 NSCLC = tested on: HOP-92 NSCLC
M14 melanoma = tested on: M14 melanoma
NCI-H522 lung = tested on: NCI-H522 lung
U251 CNS = tested on: U251 CNS
HCT-15 colon = tested on: HCT-15 colon
NCI-H460 lung = tested on: NCI-H460 lung
SF-295 CNS = tested on: SF-295 CNS
K-562 leukemia = tested on: K-562 leukemia
SW-620 colon = tested on: SW-620 colon
RPMI-8226 leukemia = tested on: RPMI-8226 leukemia
HT29 colon = tested on: HT29 colon
RXF 393 renal = tested on: RXF 393 renal
HL-60(TB) leukemia = tested on: HL-60(TB) leukemia
NCI-H23 lung = tested on: NCI-H23 lung
NCI/ADR-RES ovarian = tested on: NCI/ADR-RES ovarian
A498 renal = tested on: A498 renal
HOP-62 NSCLC = tested on: HOP-62 NSCLC
HCC-2998 colon = tested on: HCC-2998 colon
CCRF-CEM leukemia = tested on: CCRF-CEM leukemia
SK-MEL-5 melanoma = tested on: SK-MEL-5 melanoma
DU-145 prostate = tested on: DU-145 prostate
SNB-75 CNS = tested on: SNB-75 CNS
T-47D breast = tested on: T-47D breast
OVCAR-4 ovarian = tested on: OVCAR-4 ovarian
SF-268 CNS = tested on: SF-268 CNS
MCF7 breast = tested on: MCF7 breast
CAKI-1 renal = tested on: CAKI-1 renal
SK-MEL-2 melanoma = tested on: SK-MEL-2 melanoma
HS 578T breast = tested on: HS 578T breast
786-0 renal = tested on: 786-0 renal
NCI-H226 lung = tested on: NCI-H226 lung
OVCAR-8 ovarian = tested on: OVCAR-8 ovarian
TK-10 renal = tested on: TK-10 renal
SN12C renal = tested on: SN12C renal
OVCAR-5 ovarian = tested on: OVCAR-5 ovarian
UACC-62 melanoma = tested on: UACC-62 melanoma
A549 NSCLC = tested on: A549 NSCLC
MDA-MB-231 breast = tested on: MDA-MB-231 breast

For `C(=C1c2ccccc2-c2ccccc21)c1ccncc1`, the GI50 (BT-549 breast) was 10 µM, the TGI (BT-549 breast) was 22.4 µM and the GI50 (OVCAR-3 ovarian) was 2.5 µM. It also gave a TGI (OVCAR-3 ovarian) of 6.75 µM, a GI50 (MOLT-4 leukemia) of 5.04 µM and a TGI (MOLT-4 leukemia) of 35 µM. For the same compound, the GI50 (LOX IMVI melanoma) was 5.19 µM, the TGI (LOX IMVI melanoma) was 18.9 µM and the GI50 (HCT-116 colon) was 3.84 µM. It also gave a TGI (HCT-116 colon) of 14.3 µM, a GI50 (ACHN renal) of 10.6 µM and a TGI (ACHN renal) of 28 µM. The GI50 (PC-3 prostate) was 13.4 µM, the TGI (PC-3 prostate) was over 100 µM and the GI50 (SNB-19 CNS) was 5.81 µM. For the same compound, the TGI (SNB-19 CNS) was 19.5 µM, the GI50 (SK-OV-3 ovarian) was 6.76 µM and the TGI (SK-OV-3 ovarian) was 24.5 µM. For the same compound, the GI50 (EKVX NSCLC) was 3.48 µM, the TGI (EKVX NSCLC) was 15.4 µM and the GI50 (SK-MEL-28 melanoma) was 10.6 µM. For the same compound, the TGI (SK-MEL-28 melanoma) was 24.2 µM, the GI50 (MDA-MB-435) was 1.81 µM and the TGI (MDA-MB-435) was 4.85 µM. The GI50 (UACC-257 melanoma) was 11.6 µM, the TGI (UACC-257 melanoma) was 26.7 µM and the GI50 (SR leukemia) was 3.34 µM. For the same compound, the TGI (SR leukemia) was 50.1 µM, the GI50 (KM12 colon) was 3.24 µM and the TGI (KM12 colon) was 11.9 µM. For the same compound, the GI50 (COLO 205 colon) was 5.32 µM, the TGI (COLO 205 colon) was 18.3 µM and the GI50 (SF-539 CNS) was 5.62 µM. For the same compound, the TGI (SF-539 CNS) was 19.4 µM, the GI50 (HOP-92 NSCLC) was 11.2 µM and the TGI (HOP-92 NSCLC) was 25.4 µM. It also gave a GI50 (M14 melanoma) of 4.39 µM, a TGI (M14 melanoma) of 15.7 µM and a GI50 (NCI-H522 lung) of 5.78 µM. The TGI (NCI-H522 lung) was 20.4 µM, the GI50 (U251 CNS) was 3.78 µM and the TGI (U251 CNS) was 16 µM. For the same compound, the GI50 (HCT-15 colon) was 4.51 µM, the TGI (HCT-15 colon) was 18.9 µM and the GI50 (NCI-H460 lung) was 3.87 µM. For the same compound, the TGI (NCI-H460 lung) was 13.7 µM, the GI50 (SF-295 CNS) was 1.98 µM and the TGI (SF-295 CNS) was 5.28 µM. For the same compound, the GI50 (K-562 leukemia) was 4.35 µM, the TGI (K-562 leukemia) was over 100 µM and the GI50 (SW-620 colon) was 4.22 µM. It also gave a TGI (SW-620 colon) of 17.1 µM, a GI50 (RPMI-8226 leukemia) of 7.65 µM and a TGI (RPMI-8226 leukemia) of 63.4 µM. The GI50 (HT29 colon) was 4.06 µM, the TGI (HT29 colon) was 13.9 µM and the GI50 (RXF 393 renal) was 5.69 µM. The TGI (RXF 393 renal) was 21.7 µM, the GI50 (HL-60(TB) leukemia) was 4.33 µM and the TGI (HL-60(TB) leukemia) was 22.2 µM. The GI50 (NCI-H23 lung) was 9.94 µM, the TGI (NCI-H23 lung) was 26.6 µM and the GI50 (NCI/ADR-RES ovarian) was 3.88 µM. The TGI (NCI/ADR-RES ovarian) was 16.2 µM, the GI50 (A498 renal) was 2.25 µM and the TGI (A498 renal) was 10.7 µM. It also gave a GI50 (HOP-62 NSCLC) of 5.35 µM, a TGI (HOP-62 NSCLC) of 24.3 µM and a GI50 (HCC-2998 colon) of 11.3 µM. The TGI (HCC-2998 colon) was 24.5 µM, the GI50 (CCRF-CEM leukemia) was 5.36 µM and the TGI (CCRF-CEM leukemia) was 72.9 µM. It also gave a GI50 (SK-MEL-5 melanoma) of 4.64 µM, a TGI (SK-MEL-5 melanoma) of 16.7 µM and a GI50 (DU-145 prostate) of 8.28 µM. For the same compound, the TGI (DU-145 prostate) was 20.9 µM, the GI50 (SNB-75 CNS) was 6.5 µM and the TGI (SNB-75 CNS) was 24.6 µM. The GI50 (T-47D breast) was 6.04 µM, the TGI (T-47D breast) was 42.5 µM and the GI50 (OVCAR-4 ovarian) was 12.1 µM. The TGI (OVCAR-4 ovarian) was 25.6 µM, the GI50 (SF-268 CNS) was 6.39 µM and the TGI (SF-268 CNS) was 19.8 µM. For the same compound, the GI50 (MCF7 breast) was 3.92 µM, the TGI (MCF7 breast) was 14.6 µM and the GI50 (CAKI-1 renal) was 2.64 µM. It also gave a TGI (CAKI-1 renal) of 10.9 µM, a GI50 (SK-MEL-2 melanoma) of 10.6 µM and a TGI (SK-MEL-2 melanoma) of 26.4 µM. For the same compound, the GI50 (HS 578T breast) was 3.77 µM, the TGI (HS 578T breast) was 14.1 µM and the GI50 (786-0 renal) was 8.17 µM. The TGI (786-0 renal) was 22.7 µM, the GI50 (NCI-H226 lung) was 11.6 µM and the TGI (NCI-H226 lung) was 31.7 µM. For the same compound, the GI50 (OVCAR-8 ovarian) was 7.99 µM, the TGI (OVCAR-8 ovarian) was 24.9 µM and the GI50 (TK-10 renal) was 13 µM. The TGI (TK-10 renal) was 26.9 µM, the GI50 (SN12C renal) was 7.45 µM and the TGI (SN12C renal) was 21.6 µM. For the same compound, the GI50 (OVCAR-5 ovarian) was 13.8 µM, the TGI (OVCAR-5 ovarian) was 33.2 µM and the GI50 (UACC-62 melanoma) was 5.14 µM. The TGI (UACC-62 melanoma) was 18.6 µM, the GI50 (A549 NSCLC) was 4.65 µM and the TGI (A549 NSCLC) was 19.3 µM. The GI50 (MDA-MB-231 breast) was 6.75 µM and the TGI (MDA-MB-231 breast) was 23.1 µM.
